Results reported in patent US20190031613A1, “COMPOUNDS AND METHODS FOR THEIR USE IN THE TREATMENT OF MALARIA” (University of South Florida, priority 2016, published 2019).
≈ marks a conversion by molar mass, not a printed value. Entries after “also recorded” stand apart in the source; their conditions may differ. Like-named read-outs stand apart in the source and are kept apart here.

Assays:
[1] = test system: P. berghei; details: cited from earlier work; for PO dose, single exposure radical cure: lowest single-cure dose as reported
[2] = in vivo pharmacokinetics in mice (plasma, LC/MS-MS)
Description: Plasma exposure of prodrug 6e and parent compound 1b was determined following a single oral administration at 10 mg/kg and 3 mg/kg doses in 0.5% aqueous HEC (FIG. 5b).
Compounds 1b and its prodrug 6e were administered as a single dose (10 mg/kg) in 0.5% HEC using freshly prepared solution. Parent compound 1d and its prodrugs 6c and 6d were administered as a single dose of 50 mg/kg using the same vehicle. The blood was collected in prepared 5 ml syringe containing heparin via cardiac puncture and put into 15 mL conical tube on ice. Five mice were used per one time point at 0.5 h, 1 h, 2 h, 4 h, 8 h and 24 h […] plus 2 mice as a control (not-treated). The blood was then centrifuged for 5 min at 4000 rpm and plasma supernatant collected while avoiding the whole blood pellet at the bottom of the tube. The plasma was stored at −80° C. until the day of LC/MS-MS analysis.
Compound concentrations were quantitated in plasma samples by LC/MS-MS using an Agilent triple quadrupole instrument. Chromatographic separation was conducted using an Agilent HPLC with Phenomenex Kinetex C18 column (2.6 μm particle size, 50-4.6 mm i.d.) equipped with a Phenomenex Security Guard column. The mobile phase (1.25 mL/min) consisted of 0.05% formic acid in water and 0.05% formic acid in acetonitrile mixed using a linear gradient over 7 minutes. […] Plasma samples and calibration standards were prepared by protein precipitation with acetonitrile (3 parts acetonitrile to 1 part plasma), followed by centrifugation and analysis of the supernatant. Sample concentrations were determined by comparison to calibration standards prepared in blank plasma and assayed using the same conditions. The analytical lower limit of quantitation in plasma was typically 0.75-1.00 nM and accuracy, precision and recovery were within acceptable limits.
The plasma was first warmed up on ice for about 1 hour. Then 50 μL of plasma sample was precipitated with 150 μL of cold acetonitrile with internal standard (133 nM) P4Q-95^20) following by centrifugation at 4,000 rpm for 5 min at 4° C. and transfer˜150 μL of the supernatant to LCMS vial. The samples were analyzed using Agilent triple quadruple instrument in triplicates (5 mice×3 injections for each time point). The chemical structure of P4Q-95^20 is shown below:
The calibration curve for 1d was linear in 1 to 500 nM range so samples were diluted if needed to fit this linearity and then concentration recalculated accordingly. Calibration curve was run each time following the actual PK measurements and used for that particular compound.

[3] = test system: P. berghei-GFP parasites; assay: in vivo efficacy, modified Thompson test; set-up: species or system mice
Description: Prodrug 6d was orally tested for in vivo efficacy at four doses (0.3 mg/kg, 1.0 mg/kg, 3.0 mg/kg, and 10 mg/kg) in 0.5% aqueous HEC solution.

[4] = test system: multidrug resistant malarial strain W2 (pyrimethamine and chloroquine resistant); assay: in vitro antimalarial activity against strain W2; assay type: cell-based; details: strains W2 and TM90-C2B, strain not specified
From the text: FIG. 2a depicts the synthesis of 4(1H)-quinolones 1 via Conrad-Limpach reaction^24 and conversion to first set of prodrugs (2, 3 and 4) via O-acylation.
FIG. 4a depicts the synthesis of 4(1H)-quinolones 1 into amino AOCOM ether prodrugs 6 via O-alkylation and subsequent deprotection.

[5] = aqueous solubility at pH 7.4; details: aqueous medium at pH 7.4 (buffer not named), pH 7.4, aqueous buffer
[6] = aqueous stability and parent compound release by quantitative HPLC
Description: The stability of prodrugs in aqueous media and the release of parent compound was followed for 10 h using HPLC in triplicates.
Compound stability was assessed using quantitative HPLC in buffers at different pHs (2, 4, 7), in a simulated gastric fluid (SGF) and in a simulated intestinal fluid (SIF).

[7] = oral dose 3.0 mg/kg, 0.5% aqueous HEC
[8] = oral dose 100 mg/kg, 0.5% aqueous HEC
[9] = single PO dose 10 mg/kg on day 3 PI, 0.5% aqueous HEC
[10] = 10 mg/kg PO, three daily doses days 3-5 PI, 0.5% aqueous HEC
[11] = 10 mg/kg PO, three daily doses days 3-5 PI, 0.5% aqueous HEC, untreated 13
[12] = 50 mg/kg PO, three daily doses days 3-5 PI, 0.5% aqueous HEC

**Q.** For `CS(=O)(=O)c1ccc(-c2cnc(N)c(-c3ccc(C(F)(F)F)nc3)c2)cc1` [MMV390048], which “PO dose, single exposure radical cure” value [1] is on record?
**A.** Its value is 30 mg/kg.

**Q.** Which “AUC0→24” value [2, 7] does the source give for `COc1cc2[nH]c(C)c(-c3ccc(Oc4ccc(OC(F)(F)F)cc4)cc3F)c(=O)c2cc1Cl` [1b, 6-chloro-3-(2-fluoro-4-(4-(tfifluoromethoxy)phenoxy)phenyl)-7-methoxy-2-methyl-4(1H)-quinolone, reference compound] here?
**A.** Its value is 228 µmol·min/L.

**Q.** What about the “CL” value [2, 7] of the same compound?
**A.** Its value is 26.6 mL·kg/min.

**Q.** What about the “Vd” value [2, 7] of the same compound?
**A.** Its value is 19.6 L/kg.

**Q.** And the “t1/2 apparent” value [2, 7]?
**A.** Its value is 8.5 h.

**Q.** What about the “tmax” value [2, 7] of the same compound?
**A.** Its value is 4 h.

**Q.** And the “AUC0→24” value [2, 8]?
**A.** Its value is 580 µmol·min/L.

**Q.** And the “CL” value [2, 8]?
**A.** The value was 34.9 mL·kg/min.

**Q.** And the “Vd” value [2, 8]?
**A.** The value was 44 L/kg.

**Q.** And the “t1/2 apparent” value [2, 8]?
**A.** The value was 14.5 h.

**Q.** What about the “tmax” value [2, 8] of the same compound?
**A.** Its value is 8 h.

**Q.** And the Cmax ([2]; read-out: Cmax [μmol/L], oral dose 3.0 mg/kg, 0.5% aqueous HEC, parent in plasma)?
**A.** Its Cmax is 0.31 µmol/L.

**Q.** What about the Cmax ([2]; read-out: Cmax [μmol/L], oral dose 100 mg/kg, 0.5% aqueous HEC) of the same compound?
**A.** Its Cmax is 0.46 µmol/L.

**Q.** What about the Cmax ([2]; single oral 3 mg/kg, 0.5% aqueous HEC) of the same compound?
**A.** The Cmax was 0.31 µmol/L.

**Q.** What about the “Day of death (avg)” value [3, 9] of the same compound?
**A.** The value was 13.

**Q.** And the “Suppression [%] day 6 PI” value [3, 9]?
**A.** The value was less than 1%.

**Q.** And the “in vivo activity” value ([3]; single dose of 10 mg/kg PO, 0.5% aqueous HEC)?
**A.** The value was “completely inactive”.

**Q.** For `COc1cc2nc(C)c(-c3ccccc3C)c(OC(=O)N3CCCC3)c2cc1Cl` [2b, 6-Chloro-7-methoxy-2-methyl-3-(o-tolyl)-4-((pyrrolidine-1-carbonyl)oxy)quinoline], which “EC50 values fold higher than reference 4(1H)-quinolone 1c” value [4] is on record?
**A.** Its value is 300 fold.

**Q.** And the “in vitro antimalarial activity / EC50 values relative to 1c” value [4]?
**A.** Its value is “lacked in antimalarial activity”.

**Q.** And the solubility [5]?
**A.** The solubility was 2.9 µM (≈ 1.19 µg/mL).

**Q.** Which results are given for `COc1cc2[nH]c(C)c(-c3ccccc3C)c(=O)c2cc1Cl` [1c, 6-chloro-7-methoxy-2-methyl-3-(o-tolyl)-4(1H)-quinolone, reference compound]?
**A.** Suppression [%] day 6 PI [3, 10]: 29%; Day of death (avg) [3, 11]: 13; Day of death (avg) [3, 12]: 13; Suppression [%] day 6 PI [3, 12]: 28%; solubility [5]: 8.7 µM (≈ 2.73 µg/mL)

**Q.** For `c1cc([C@H]2CC[C@]3(CC2)OO[C@]2(O3)C3CC4CC(C3)CC2C4)ccc1OCCN1CCOCC1` [OZ439], which “single oral dose that cures P. berghei-infected mice” value ([1]; clinical candidate, given in combination with ferroquine in trials) is on record?
**A.** Its value is 20 mg/kg.

**Q.** What about the “PO dose, single exposure radical cure” value [1] of the same compound?
**A.** The value was 20 mg/kg.

**Q.** For `C[C@H]1Cc2c([nH]c3cc(Cl)c(F)cc23)[C@@]2(N1)C(=O)Nc1ccc(Cl)cc12` [KAE609], which “PO dose, single exposure radical cure” value [1] is on record?
**A.** Its value is 100 mg/kg.

**Q.** With `CNCCCOC(=O)OCOc1c(-c2ccc(C(F)(F)F)cc2)c(C)nc2cc(OC)c(Cl)cc12.Cl` [6d, 6-Chloro-7-methoxy-2-methyl-3-(4-(trifluoromethyl)phenyl)-4-(((3-(methylammonio)propyloxycarbonyl)oxy)methoxy)quinoline, chloride salt] as the compound, how does the “AUC0→24” value ([2]; mouse, in vivo, po, 50 mg/kg) read?
**A.** The value was 11664 µmol·min/L.

**Q.** What about the “AUC of 1d improved vs dosing of 1d” value ([2]; mouse, in vivo, po, 50 mg/kg) of the same compound?
**A.** The value was 52 fold.

**Q.** And the “CL” value ([2]; mouse, in vivo, po, 50 mg/kg)?
**A.** The value was 7.8 mL·kg/min.

**Q.** What about the Cmax ([2]; mouse, in vivo, po, 50 mg/kg) of the same compound?
**A.** The Cmax was 21.2 µmol/L.

**Q.** What about the “Vd” value ([2]; mouse, in vivo, po, 50 mg/kg) of the same compound?
**A.** Its value is 4.3 L/kg.

**Q.** What about the “t1/2 apparent” value ([2]; mouse, in vivo, po, 50 mg/kg) of the same compound?
**A.** The value was 6.4 h.

**Q.** What about the “tmax” value ([2]; mouse, in vivo, po, 50 mg/kg) of the same compound?
**A.** Its value is 1 h.

**Q.** And the “Suppression [%] day 6 PI” value [3, 10]?
**A.** The value was 82%.

**Q.** And the “Day of death (avg)” value [3, 11]?
**A.** The value was 13.

**Q.** What about the “Day of death (avg)” value [3, 12] of the same compound?
**A.** The value was 14.

**Q.** What about the “Suppression [%] day 6 PI” value [3, 12] of the same compound?
**A.** Its value is 96%.

**Q.** And the “life span of treated animals relative to untreated controls” value ([3]; 10 and 50 mg/kg PO)?
**A.** Its value is “do not significantly extend the life span”.

**Q.** What about the “aqueous stability” value ([6]; buffers pH 2, 4, 7, SGF, SIF) of the same compound?
**A.** Its value is “stable at low pH values; also recorded: more stable than 6c”.

**Q.** And the parent compound released ([6]; in 5 h at pH 7.0, parent 1d)?
**A.** The parent compound released was greater than 55%.
